Measurements as given in US10662218B2, “Analogs of celastrol” (ERX Pharmaceuticals, Inc., priority 2015, dated 2020).
In brackets after ≈: the same amount, converted by molar mass. Several values for one entry are separate records, joined by “and”; a condition that tells them apart may be missing. Identical values can stand only once. Like-named read-outs stand apart in the source and are kept apart here.

Assays:
[1] = system: C57BL/6 Diet Induced Obese (DIO) mice; settings: I.P. administration
Protocol: The following test compounds were studied to determine any anti-obesity effect when administered to rodents. First, test compounds were formulated in 50, 100, 200, 400, 500, 1000 and 2000 μg/kg doses and administered once daily in a dose volume of 2 mL/kg i.p. for multiple days. Test compounds were compared to administration of vehicle to mice. The experiment consisted of two phases: a pre-dosing phase and a dosing phase. Weight of the animals in each testing group was measured daily. Fluid samples were taken as well.
Descriptive statistics (n, mean, standard error of the mean, standard deviation) were completed. Additionally, one way analysis of variance followed by Dunnett's post-hoc test was performed on body weight (cumulative body weight change), glucose (glucose percent change), and food consumption (cumulative food consumption). Area under the curve (for body weight, cumulative body weight change, daily body weight change, and food consumption) was computed for treatment groups. An appropriate comparison test, such as one-way analysis of variance and Dunnett's, was performed on the group means for the area under the curve computations.

[2] = Compound solubility in PBS (pH 7.4), LC-MS/MS; settings: PBS (pH 7.4), pH 7.4, aqueous buffer, kinetic from dmso stock
Protocol: • Test concentration: 100 μM (1% of DMSO) • Test systems: PBS (pH 7.4) • Incubation condition: shaken (1000 rpm) for 1 h at room temperature • Sample size: Duplicates (n=2) • Bioanalytical method: LC-MS/MS

[3] = system: C57BL/6 Diet Induced Obese (DIO) mice; assay: Oral (P.O.) administration study in DIO mice: in vivo activity, body weights; set-up: species or system mouse; settings: 2 mg/kg; for Individual Body Weight: individual male animals; for Body weight, Mean / change in vivo at 2 mg/kg: male; for change in vivo at 2 mg/kg: Mus musculus, po, read-out: Body weight, %-Diff
How it was run: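 Male C57BL/6 DIO mice (21-22 weeks, 29.8-40.1 g) were gavage-acclimated with vehicle, then dosed orally once daily for 10 days at 2 mL/kg. Body weight was recorded daily before dosing. Cumulative change and AUC were analysed by one-way ANOVA with Dunnett's test.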

[4] = system: C57BL/6 Diet Induced Obese (DIO) mice; assay: Oral (P.O.) administration study in DIO mice: animal fate (mortality) and clinical observations; settings: mouse, in vivo, 2 mg/kg
Protocol: Male C57BL/6 DIO mice were assigned to 12 groups, and doses of 2 mg/kg Celastrol (ERX1000-4), ERX1006, ERX1007, ERX1037, ERX1060, ERX1077, ERX1107, ERX1149, ERX1168, ERX1177, and Pristimerin were administered to Groups 2 through 12, respectively. Animals were dosed via oral gavage once daily for 10 days at a volume of 2 mL/kg. The vehicle control article was 1% methyl cellulose (400 cps) in citric acid and phosphate buffer.
Parameters assessed included mortality, clinical observations, body weights and food consumption and blood glucose evaluations.
All animals were anesthetized via carbon dioxide, sacrificed, and discarded without further evaluation on Day 11.

[5] = Solubility (μM) Mean, Table 6-B, test concentration 100 μM (1% of DMSO), shaken (1000 rpm) 1 h at room temperature, n = 2
[6] = 24 h, Day 1, DSNG phase, difference of group mean
[7] = 48 h, Day 2, DSNG phase, difference of group mean
[8] = 72 h, Day 3, DSNG phase, difference of group mean
[9] = 96 h, Day 4, DSNG phase, difference of group mean
[10] = 120 h, Day 5, DSNG phase, difference of group mean
[11] = 144 h, Day 6, DSNG phase, difference of group mean
[12] = 168 h, DIO mice, phase DSNG, Day 7, difference of group mean from vehicle group 1
[13] = 192 h, DIO mice, phase DSNG, Day 8, difference of group mean from vehicle group 1
[14] = 216 h, DIO mice, phase DSNG, Day 9, difference of group mean from vehicle group 1
[15] = 240 h, DIO mice, phase DSNG, Day 10, difference of group mean from vehicle group 1
[16] = 264 h, DIO mice, phase DSNG, Day 11, difference of group mean from vehicle group 1

| Structure (SMILES) | activity ([1]; dose 100 μg/kg) | solubility at 1 h [2, 5] [µM] | solubility at 1 h ([2]; Solubility (μM), Table 6-D) [µM] | activity ([1]; dose 400 μg/kg) | Body weight, Mean ([3]; DIO mice, phase DSNG, Day 7) [g] | Body weight, Mean ([3]; DIO mice, phase DSNG, Day 8) [g] | Body weight, Mean ([3]; DIO mice, phase DSNG, Day 9) [g] | Body weight, Mean ([3]; DIO mice, phase DSNG, Day 10) [g] | Body weight, Mean ([3]; DIO mice, phase DSNG, Day 11) [g] | Body weight, Mean ([3]; Day 1, DSNG phase, N=5) [g] | Body weight, Mean ([3]; Day 2, DSNG phase, N=5) [g] | Body weight, Mean ([3]; Day 3, DSNG phase, N=5) [g] | Body weight, Mean ([3]; Day 4, DSNG phase, N=5) [g] | Body weight, Mean ([3]; Day 5, DSNG phase, N=5) [g] | Body weight, Mean ([3]; Day 6, DSNG phase, N=5) [g] | change in vivo at 2 mg/kg [3, 6] [%] | change in vivo at 2 mg/kg [3, 7] [%] | change in vivo at 2 mg/kg [3, 8] [%] | change in vivo at 2 mg/kg [3, 9] [%] | change in vivo at 2 mg/kg [3, 10] [%] | other results |
| --- | --- | --- | --- | --- | --- | --- | --- | --- | --- | --- | --- | --- | --- | --- | --- | --- | --- | --- | --- | --- | --- |
| CC1=C(O)C(=O)C=C2C1=CC=C1[C@@]2(C)CC[C@@]2(C)[C@@H]3C[C@](C)(C#N)CC[C@]3(C)CC[C@]12C [ERX1015] | ++ | 0.79 (≈ 0.341 µg/mL) | 0.791 (≈ 0.342 µg/mL) |  |  |  |  |  |  |  |  |  |  |  |  |  |  |  |  |  |  |
| COC1=C(C)C2=CC=C3[C@@](C)(CC[C@@]4(C)[C@@H]5C[C@](C)(C(N)=O)CC[C@]5(C)CC[C@]34C)C2=CC1=O [ERX1031] | − | 8.56 (≈ 3.97 µg/mL) | 8.56 (≈ 3.97 µg/mL) | ++ |  |  |  |  |  |  |  |  |  |  |  |  |  |  |  |  |  |
| CCNC(=O)OC1=C(C)C2=CC=C3[C@@](C)(CC[C@@]4(C)[C@@H]5C[C@](C)(C#N)CC[C@]5(C)CC[C@]34C)C2=CC1=O [ERX1047] | − | 1.13 (≈ 0.568 µg/mL) | 1.13 (≈ 0.568 µg/mL) | ++ |  |  |  |  |  |  |  |  |  |  |  |  |  |  |  |  |  |
| CCOC1=C(C)C2=CC=C3[C@@](C)(CC[C@@]4(C)[C@@H]5C[C@](C)(C(N)=O)CC[C@]5(C)CC[C@]34C)C2=CC1=O [ERX1107] |  | 11.4 (≈ 5.45 µg/mL) | 11.4 (≈ 5.45 µg/mL) |  | 32.4 | 32.3 | 32.2 | 32.4 | 32.7 | 34.2 | 34.3 | 33.4 | 33.2 | 33.1 | 32.7 | 0 | -1 | -1 | -1 | -2 | Individual Body Weight ([3]; Phase Day DSNG 1): 33.6 g and 35.8 g and 36.3 g and 31.2 g and 34.1 g; Individual Body Weight ([3]; Phase Day DSNG 2): 33.5 g and 36.5 g (2×) and 31.0 g and 33.9 g; Individual Body Weight ([3]; Phase Day PRED 11 (pre-dose baseline)): 34.1 g (2×) and 36.6 g and 37.7 g and 36.2 g; Individual Body Weight ([3]; Phase Day PRED 12 (pre-dose baseline)): 35.1 g and 37.5 g and 37.9 g and 33.2 g and 34.6 g; Individual Body Weight ([3]; Phase Day PRED 13 (pre-dose baseline)): 34.9 g and 38.0 g and 37.6 g and 31.9 g and 33.8 g; Individual Body Weight ([3]; Phase Day PRED 14 (pre-dose baseline)): 35.1 g and 37.5 g and 37.7 g and 32.5 g and 34.6 g; change in vivo at 2 mg/kg [3, 11]: -2%; change in vivo at 2 mg/kg [3, 12]: -3%; change in vivo at 2 mg/kg [3, 13]: -4%; change in vivo at 2 mg/kg [3, 14]: -3%; change in vivo at 2 mg/kg [3, 15]: -3%; change in vivo at 2 mg/kg [3, 16]: -4%; Individual Animal Fate: Fate Status [4]: Scheduled Sacrifice |
| CC1=C(O)C(=O)C=C2C1=CC=C1[C@@]2(C)CC[C@@]2(C)[C@@H]3C[C@](C)(N(C)C)CC[C@]3(C)CC[C@]12C [ERX1177] |  | 49.5 (≈ 22.3 µg/mL) | 49.5 (≈ 22.3 µg/mL) |  | 33.4 | 33.1 | 33.0 | 33.1 | 33.0 | 34.9 | 34.4 | 34.2 | 33.7 | 33.8 | 33.5 | 2 | 0 | 1 | 1 | 0 | Individual Body Weight ([3]; Phase Day DSNG 3): 31.8 g (2×) and 34.6 g (2×) and 38.2 g; Individual Body Weight ([3]; Phase Day DSNG 4): 31.2 g and 30.8 g and 34.8 g and 37.7 g and 34.2 g; Individual Body Weight ([3]; Phase Day DSNG 5): 31.3 g and 30.9 g and 34.2 g and 38.0 g and 34.4 g; Individual Body Weight ([3]; Phase Day DSNG 6): 31.4 g and 30.1 g and 33.7 g and 38.1 g and 34.4 g; Individual Body Weight ([3]; Phase Day DSNG 7): 31.4 g and 29.9 g and 33.7 g and 38.0 g and 34.1 g; Individual Body Weight ([3]; Phase Day DSNG 8): 31.0 g and 29.8 g and 33.4 g and 37.8 g and 33.7 g; change in vivo at 2 mg/kg [3, 11]: 0%; change in vivo at 2 mg/kg [3, 12]: 0%; change in vivo at 2 mg/kg [3, 13]: -2%; change in vivo at 2 mg/kg [3, 14]: -1%; change in vivo at 2 mg/kg [3, 15]: -1%; change in vivo at 2 mg/kg [3, 16]: -3%; Individual Body Weight, DSNG 1 ([3]; individual male DIO mouse, dosing phase day 1): 32.0 g and 32.1 g and 35.5 g and 40.1 g and 35.0 g; Individual Body Weight, DSNG 2 ([3]; individual male DIO mouse, dosing phase day 2): 32.2 g and 31.9 g and 34.5 g and 38.4 g and 34.9 g; Individual Body Weight, PRED 11 ([3]; individual male DIO mouse, group dosed 2 mg/kg, pre-dose phase day 11 (baseline)): 33.8 g and 33.3 g and 37.1 g and 41.9 g and 35.5 g; Individual Body Weight, PRED 12 ([3]; individual male DIO mouse, group dosed 2 mg/kg, pre-dose phase day 12 (baseline)): 32.5 g and 33.7 g and 36.7 g and 41.6 g and 36.2 g; Individual Body Weight, PRED 13 ([3]; individual male DIO mouse, group dosed 2 mg/kg, pre-dose phase day 13 (baseline)): 31.8 g and 32.6 g and 35.6 g and 42.2 g and 36.1 g; Individual Body Weight, PRED 14 ([3]; individual male DIO mouse, group dosed 2 mg/kg, pre-dose phase day 14 (baseline)): 31.7 g and 33.1 g and 36.4 g and 41.7 g and 36.2 g; Individual Animal Fate: Fate Status [4]: Scheduled Sacrifice |
